Test results: ChEMBL document CHEMBL3045243, “Synthesis of novel 3-chloro-1-(5H-dibenz[b,f]azepine-5yl)propan-1-one derivatives with antioxidant activity” (Med Chem Res, 2011)

Legend:
Type in all cases: functional
[1] = Antioxidant activity assessed as inhibition of CuSO4-induced human LDL oxidation at 25 uM at 6 hr by thibarbuteric acid assay
[2] = Antioxidant activity assessed as inhibition of linoleic acid oxidation at 25 uM up to 180 min by beta-carotene bleaching assay
[3] = Antioxidant activity assessed as inhibition of CuSO4-induced human LDL oxidation at 25 uM at 2 hr by thibarbuteric acid assay
[4] = Antioxidant activity assessed as inhibition of linoleic acid oxidation at 10 uM up to 180 min by beta-carotene bleaching assay
[5] = Antioxidant activity assessed as inhibition of CuSO4-induced human LDL oxidation at 10 uM at 2 hr by thibarbuteric acid assay
[6] = Antioxidant activity assessed as inhibition of CuSO4-induced human LDL oxidation at 10 uM at 6 hr by thibarbuteric acid assay
[7] = Antioxidant activity assessed as inhibition of CuSO4-induced human LDL oxidation at 25 uM at 4 hr by thibarbuteric acid assay
[8] = Antioxidant activity assessed as inhibition of CuSO4-induced human LDL oxidation at 10 uM at 4 hr by thibarbuteric acid assay

`O=C(O)[C@H](Cc1c[nH]cn1)NCCC(=O)N1c2ccccc2C=Cc2ccccc21` showed an inhibition [1] of 72.7%, an inhibition [2] of 86.8% and an inhibition [3] of 68.3%. The inhibition [4] was 85%, the inhibition [5] was 56.3% and the inhibition [6] was 68.5%. The inhibition [7] was 70.1% and the inhibition [8] was 65.7%.
For `O=C(O)CNCCC(=O)N1c2ccccc2C=Cc2ccccc21`, the inhibition [1] was 10.3%, the inhibition [2] was 8.8% and the inhibition [3] was 8.24%. It also gave an inhibition [4] of 2.96%, an inhibition [5] of 6.71% and an inhibition [6] of 10.2%. For the same molecule, the inhibition [7] was 7.92% and the inhibition [8] was 7.95%.
In the case of `C[C@H](NCCC(=O)N1c2ccccc2C=Cc2ccccc21)C(=O)O`, the inhibition [1] is reported as 12.1%, the inhibition [2] is reported as 15.4% and the inhibition [3] is reported as 9.14%. For the same molecule, the inhibition [4] was 10%, the inhibition [5] was 8.92% and the inhibition [6] was 11%. For the same molecule, the inhibition [7] was 10.1% and the inhibition [8] was 9.75%.
Molecule `O=C(O)[C@H](Cc1ccc(O)cc1)NCCC(=O)N1c2ccccc2C=Cc2ccccc21` has an inhibition [1] of 83.5%, an inhibition [2] of 89.1% and an inhibition [3] of 73.6%. For the same molecule, the inhibition [4] was 86.8%, the inhibition [5] was 70.5% and the inhibition [6] was 78.7%. For the same molecule, the inhibition [7] was 79.6% and the inhibition [8] was 75.5%.
In the case of `O=C(O)[C@@H]1CCCN1CCC(=O)N1c2ccccc2C=Cc2ccccc21`, the inhibition [1] is reported as 17.4%, the inhibition [2] is reported as 6.15% and the inhibition [3] is reported as 13.7%. It also gave an inhibition [4] of 4.22%, an inhibition [5] of 11.9% and an inhibition [6] of 15.4%. For the same molecule, the inhibition [7] was 14.1% and the inhibition [8] was 13.6%.
With `C[C@@H](O)[C@H](NCCC(=O)N1c2ccccc2C=Cc2ccccc21)C(=O)O` the inhibition [1] was 61.6%, the inhibition [2] was 76% and the inhibition [3] was 56.2%. The inhibition [4] was 53.8%, the inhibition [5] was 53.5% and the inhibition [6] was 57%. The inhibition [7] was 59.6% and the inhibition [8] was 55.5%.
In the case of `O=C(CCCl)N1c2ccccc2C=Cc2ccccc21`, the inhibition [1] is reported as 12.4%, the inhibition [2] is reported as 4.24% and the inhibition [3] is reported as 7.43%. The inhibition [4] was 2.89%, the inhibition [5] was 5.34% and the inhibition [6] was 8.87%. For the same molecule, the inhibition [7] was 9.77% and the inhibition [8] was 6.87%.
For `O=C(O)[C@@H]1C(O)CCN1CCC(=O)N1c2ccccc2C=Cc2ccccc21` (some centres undefined), the inhibition [1] was 77.1%, the inhibition [2] was 88.4% and the inhibition [3] was 73.7%. It also gave an inhibition [4] of 85.4%, an inhibition [5] of 69.7% and an inhibition [6] of 75.8%. It also gave an inhibition [7] of 75.5% and an inhibition [8] of 73.5%.
In the case of `O=C(O)[C@H](CS)NCCC(=O)N1c2ccccc2C=Cc2ccccc21`, the inhibition [1] is reported as 75.8%, the inhibition [2] is reported as 84.4% and the inhibition [3] is reported as 70.5%. It also gave an inhibition [4] of 82.2%, an inhibition [5] of 67.3% and an inhibition [6] of 72.5%. It also gave an inhibition [7] of 73.4% and an inhibition [8] of 69.8%.
Molecule `CSCC[C@H](NCCC(=O)N1c2ccccc2C=Cc2ccccc21)C(=O)O` has an inhibition [1] of 61.6%, an inhibition [2] of 67.3% and an inhibition [3] of 55%. For the same molecule, the inhibition [4] was 52.6%, the inhibition [5] was 54.6% and the inhibition [6] was 59.7%. The inhibition [7] was 59.8% and the inhibition [8] was 57.9%.
`O=C(O)[C@H](Cc1ccccc1)NCCC(=O)N1c2ccccc2C=Cc2ccccc21` showed an inhibition [1] of 18.7%, an inhibition [2] of 8.3% and an inhibition [3] of 13.1%. It also gave an inhibition [4] of 5.39%, an inhibition [5] of 9.98% and an inhibition [6] of 13.5%. For the same molecule, the inhibition [7] was 16.4% and the inhibition [8] was 11.2%.
`O=C1O[C@H]([C@@H](O)CO)C(O)=C1O` showed an inhibition [1] of 92.2%, an inhibition [2] of 90.4% and an inhibition [3] of 79.2%. It also gave an inhibition [4] of 87.2%, an inhibition [5] of 74.3% and an inhibition [6] of 84.4%. The inhibition [7] was 85.2% and the inhibition [8] was 81.3%.
With `O=C(O)[C@H](Cc1c[nH]c2ccccc12)NCCC(=O)N1c2ccccc2C=Cc2ccccc21` the inhibition [1] was 75.2%, the inhibition [2] was 85.9% and the inhibition [3] was 71.2%. It also gave an inhibition [4] of 83.6%, an inhibition [5] of 67.9% and an inhibition [6] of 73.5%. It also gave an inhibition [7] of 73.2% and an inhibition [8] of 70.8%.
